# PubChem BioAssay (NCI)
#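 Protocol summary: plate cells (96-well), add compound at 5 concentrations, incubate 48 h, interpolate endpoints linearly. TGI marks complete inhibition of growth.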
# How the values were obtained:
# Assay in all cases: NCI anticancer screen, dose series, 48 h
# 786-0 renal = tested on: 786-0 renal
# A498 renal = tested on: A498 renal
# A549 NSCLC = tested on: A549 NSCLC
# ACHN renal = tested on: ACHN renal
# BT-549 breast = tested on: BT-549 breast
# CAKI-1 renal = tested on: CAKI-1 renal
# CCRF-CEM leukemia = tested on: CCRF-CEM leukemia
# COLO 205 colon = tested on: COLO 205 colon
# DU-145 prostate = tested on: DU-145 prostate
# EKVX NSCLC = tested on: EKVX NSCLC
# HCC-2998 colon = tested on: HCC-2998 colon
# HCT-116 colon = tested on: HCT-116 colon
# HCT-15 colon = tested on: HCT-15 colon
# HL-60(TB) leukemia = tested on: HL-60(TB) leukemia
# HOP-62 NSCLC = tested on: HOP-62 NSCLC
# HOP-92 NSCLC = tested on: HOP-92 NSCLC
# HS 578T breast = tested on: HS 578T breast
# HT29 colon = tested on: HT29 colon
# IGROV1 ovarian = tested on: IGROV1 ovarian
# K-562 leukemia = tested on: K-562 leukemia
# KM12 colon = tested on: KM12 colon
# LOX IMVI melanoma = tested on: LOX IMVI melanoma
# M14 melanoma = tested on: M14 melanoma
# MALME-3M melanoma = tested on: MALME-3M melanoma
# MCF7 breast = tested on: MCF7 breast
# MDA-MB-231 breast = tested on: MDA-MB-231 breast
# MDA-MB-435 = tested on: MDA-MB-435
# MDA-N = tested on: MDA-N
# MOLT-4 leukemia = tested on: MOLT-4 leukemia
# NCI-H226 lung = tested on: NCI-H226 lung
# NCI-H23 lung = tested on: NCI-H23 lung
# NCI-H460 lung = tested on: NCI-H460 lung
# NCI-H522 lung = tested on: NCI-H522 lung
# NCI/ADR-RES ovarian = tested on: NCI/ADR-RES ovarian
# OVCAR-3 ovarian = tested on: OVCAR-3 ovarian
# OVCAR-4 ovarian = tested on: OVCAR-4 ovarian
# OVCAR-5 ovarian = tested on: OVCAR-5 ovarian
# OVCAR-8 ovarian = tested on: OVCAR-8 ovarian
# PC-3 prostate = tested on: PC-3 prostate
# RPMI-8226 leukemia = tested on: RPMI-8226 leukemia
# RXF 393 renal = tested on: RXF 393 renal
# SF-268 CNS = tested on: SF-268 CNS
# SF-295 CNS = tested on: SF-295 CNS
# SF-539 CNS = tested on: SF-539 CNS
# SK-MEL-2 melanoma = tested on: SK-MEL-2 melanoma
# SK-MEL-28 melanoma = tested on: SK-MEL-28 melanoma
# SK-MEL-5 melanoma = tested on: SK-MEL-5 melanoma
# SK-OV-3 ovarian = tested on: SK-OV-3 ovarian
# SN12C renal = tested on: SN12C renal
# SNB-19 CNS = tested on: SNB-19 CNS
# SNB-75 CNS = tested on: SNB-75 CNS
# SR leukemia = tested on: SR leukemia
# SW-620 colon = tested on: SW-620 colon
# T-47D breast = tested on: T-47D breast
# TK-10 renal = tested on: TK-10 renal
# U251 CNS = tested on: U251 CNS
# UACC-257 melanoma = tested on: UACC-257 melanoma
# UACC-62 melanoma = tested on: UACC-62 melanoma
# UO-31 renal = tested on: UO-31 renal
smiles,measurement,setting,value
O=C(CC(=O)Nc1ccccc1Cl)NNC(c1cc(N=Nc2ccc(Br)cc2)ccc1O)P(O)O (stereo not drawn),TGI,786-0 renal,> 10 µM
same,TGI,A498 renal,7.87 µM
same,TGI,A549 NSCLC,> 10 µM
same,TGI,ACHN renal,> 10 µM
same,TGI,BT-549 breast,> 10 µM
same,TGI,CAKI-1 renal,6.71 µM
same,TGI,CCRF-CEM leukemia,9.58 µM
same,TGI,COLO 205 colon,> 10 µM
same,TGI,DU-145 prostate,> 10 µM
same,TGI,EKVX NSCLC,> 10 µM
same,TGI,HCC-2998 colon,> 10 µM
same,TGI,HCT-116 colon,0.964 µM
same,TGI,HCT-15 colon,> 10 µM
same,TGI,HL-60(TB) leukemia,1.18 µM
same,TGI,HOP-62 NSCLC,> 10 µM
same,TGI,HOP-92 NSCLC,> 10 µM
same,TGI,HS 578T breast,> 10 µM
same,TGI,HT29 colon,> 10 µM
same,TGI,IGROV1 ovarian,> 10 µM
same,TGI,K-562 leukemia,6.78 µM
same,TGI,KM12 colon,> 10 µM
same,TGI,LOX IMVI melanoma,9.51 µM
same,TGI,M14 melanoma,2.72 µM
same,TGI,MALME-3M melanoma,> 10 µM
same,TGI,MCF7 breast,> 10 µM
same,TGI,MDA-MB-231 breast,> 10 µM
same,TGI,MDA-MB-435,> 10 µM
same,TGI,MDA-N,> 10 µM
same,TGI,MOLT-4 leukemia,> 10 µM
same,TGI,NCI-H226 lung,6 µM
same,TGI,NCI-H23 lung,> 10 µM
same,TGI,NCI-H460 lung,> 10 µM
same,TGI,NCI-H522 lung,> 10 µM
same,TGI,NCI/ADR-RES ovarian,> 10 µM
same,TGI,OVCAR-3 ovarian,> 10 µM
same,TGI,OVCAR-4 ovarian,> 10 µM
same,TGI,OVCAR-5 ovarian,> 10 µM
same,TGI,OVCAR-8 ovarian,3.57 µM
same,TGI,PC-3 prostate,> 10 µM
same,TGI,RPMI-8226 leukemia,> 10 µM
same,TGI,RXF 393 renal,> 10 µM
same,TGI,SF-268 CNS,> 10 µM
same,TGI,SF-295 CNS,> 10 µM
same,TGI,SF-539 CNS,5.89 µM
same,TGI,SK-MEL-2 melanoma,> 10 µM
same,TGI,SK-MEL-28 melanoma,> 10 µM
same,TGI,SK-MEL-5 melanoma,4.96 µM
same,TGI,SK-OV-3 ovarian,> 10 µM
same,TGI,SN12C renal,> 10 µM
same,TGI,SNB-19 CNS,> 10 µM
same,TGI,SNB-75 CNS,9.72 µM
same,TGI,SR leukemia,> 10 µM
same,TGI,SW-620 colon,> 10 µM
same,TGI,T-47D breast,> 10 µM
same,TGI,TK-10 renal,> 10 µM
same,TGI,U251 CNS,> 10 µM
same,TGI,UACC-257 melanoma,> 10 µM
same,TGI,UACC-62 melanoma,6.12 µM
same,TGI,UO-31 renal,> 10 µM
Cc1ccc2nc(C=Nc3ccccc3Cl)cc(C)c2c1,TGI,786-0 renal,33.2 µM
same,TGI,A498 renal,> 100 µM
same,TGI,A549 NSCLC,> 100 µM
same,TGI,ACHN renal,> 100 µM
same,TGI,BT-549 breast,30.1 µM
same,TGI,CAKI-1 renal,> 100 µM
same,TGI,CCRF-CEM leukemia,52.8 µM
same,TGI,COLO 205 colon,> 100 µM
same,TGI,DU-145 prostate,> 100 µM
same,TGI,EKVX NSCLC,> 100 µM
same,TGI,HCC-2998 colon,> 100 µM
same,TGI,HCT-116 colon,16.3 µM
same,TGI,HCT-15 colon,38.1 µM
same,TGI,HL-60(TB) leukemia,18.4 µM
same,TGI,HOP-62 NSCLC,> 100 µM
same,TGI,HOP-92 NSCLC,83 µM
same,TGI,HS 578T breast,81.2 µM
same,TGI,HT29 colon,36.8 µM
same,TGI,IGROV1 ovarian,36.7 µM
same,TGI,K-562 leukemia,> 100 µM
same,TGI,KM12 colon,35.9 µM
same,TGI,LOX IMVI melanoma,22.6 µM
same,TGI,M14 melanoma,35.1 µM
same,TGI,MALME-3M melanoma,61.9 µM
same,TGI,MCF7 breast,46.8 µM
same,TGI,MDA-MB-231 breast,35.6 µM
same,TGI,MDA-MB-435,28.5 µM
same,TGI,MDA-N,23.8 µM
same,TGI,MOLT-4 leukemia,35.1 µM
same,TGI,NCI-H226 lung,48.8 µM
same,TGI,NCI-H23 lung,46.4 µM
same,TGI,NCI-H460 lung,38.6 µM
same,TGI,NCI-H522 lung,47.2 µM
same,TGI,NCI/ADR-RES ovarian,40.2 µM
same,TGI,OVCAR-3 ovarian,35.4 µM
same,TGI,OVCAR-4 ovarian,92.9 µM
same,TGI,OVCAR-5 ovarian,> 100 µM
same,TGI,OVCAR-8 ovarian,29.9 µM
same,TGI,PC-3 prostate,> 100 µM
same,TGI,RPMI-8226 leukemia,> 100 µM
same,TGI,RXF 393 renal,29.6 µM
same,TGI,SF-268 CNS,40 µM
same,TGI,SF-295 CNS,47.2 µM
same,TGI,SF-539 CNS,33.7 µM
same,TGI,SK-MEL-2 melanoma,> 100 µM
same,TGI,SK-MEL-28 melanoma,42 µM
same,TGI,SK-MEL-5 melanoma,29.5 µM
same,TGI,SK-OV-3 ovarian,> 100 µM
same,TGI,SN12C renal,28.6 µM
same,TGI,SNB-19 CNS,> 100 µM
same,TGI,SNB-75 CNS,56.2 µM
same,TGI,SR leukemia,26.6 µM
same,TGI,SW-620 colon,28.5 µM
same,TGI,T-47D breast,47.4 µM
same,TGI,TK-10 renal,98.7 µM
same,TGI,U251 CNS,37.7 µM
same,TGI,UACC-257 melanoma,30.6 µM
same,TGI,UACC-62 melanoma,30.4 µM
same,TGI,UO-31 renal,35.5 µM
